{"source": "patent US6825217B2", "about": "“Carbinols for the treatment of neuropathic dysfunction” (Endo Pharmaceuticals, Inc., priority 2001, dated 2004)", "key": {"Safety pharmacology, rat": {"assay": "Safety pharmacology, rat", "type": "in vivo"}, "[1]": {"test_system": "sigma receptor sites in the brain", "assay": "Activity at sigma receptor sites in the brain", "type": "binding"}, "[2]": {"assay": "Anti-inflammatory effects in vivo"}, "[3]": {"assay": "Five-day Oral Dose Escalation in Beagle Dogs", "type": "in vivo, Beagle dog"}, "prostaglandin synthesase": {"test_system": "prostaglandin synthesase", "assay": "Prostaglandin synthesase inhibition", "type": "biochemical"}, "Rat Randall-Selitto": {"assay": "Rat Randall-Selitto", "type": "in vivo", "parameters": "key to activity in rat Randell-Selitto model: *: Inactive; Φ: Weakly active"}, "Rat tooth pulp": {"assay": "Rat tooth pulp", "type": "in vivo", "settings": "unmarked entry of animal model table"}, "[4]": {"assay": "Side effects at effective doses", "type": "in vivo", "settings": "at effective doses for neuropathic pain"}, "[5]": {"assay": "Chung model (tactile allodynia)", "type": "in vivo, rat", "description": "This model for neuropathic pain was performed on rats using the surgical procedure described by Kim and Chung (1992) to induce an allodynic state. Briefly, the left L-5 and L-6 spinal nerves were isolated adjacent to the vertebral column and ligated with 6-0 silk suture distal to the dorsal root ganglion under isoflurane anesthesia. This model allows for spinal cord structural reorganization and growth of low threshold mechnoreceptor fibers from the spinal cord with synaptic connections and rewiring of the dorsal horn. This leads to spontaneous firing of invading sympathetic nerves and upregulation of receptors and voltage-dependent channels; i.e. mimics the development of allodynia (nociceptive response to a previously neutral stimulus). The rats were allowed a minimum of 7-days postoperative recovery period before testing.\nTo assess tactile thresholds in the Chung model, rats were placed in a clear plastic, wire mesh-bottomed cage, divided into individual compartments. Animals were allowed to acclimate and then baseline thresholds were assessed prior to drug treatment. To assess the 50% mechanical threshold for paw withdrawal, von Frey hairs were applied to the plantar mid-hindpaw, avoiding the tori (footpads). The eight von Frey hairs used are designated by [log (10*force required to bend hair, mg)] and range from 0.4-15.1 grams (#'s 3.61-5.18). Each hair was pressed perpendicularly against the paw with sufficient force to cause slight bending, and held for approximately 6-8 seconds. A positive response was noted if the paw was sharply withdrawn. Flinching immediately upon removal of the hair was also considered a positive response. Absence of a response (“−”) was cause to present the next consecutive stronger stimulus; a positive response (“+”) was cause to present the next weaker stimulus. Stimuli were presented successively until either six data points were collected, or the maximum or minimum stimulus was reached. If a minimum stimulus was reached and positive responses still occurred, the threshold was assigned an arbitrary minimum value of 0.25 grams; if a maximum stimulus was presented and no response occurred, a maximum threshold value of 15 grams was assigned. If a change in response occurs, either “−” to “+” or “+” to “−”, causing a change in the direction of stimulus presentation from descending to ascending or vice-versa, four additional data points were collected subsequent to the change."}, "uptake of dopamine": {"target": "T1, uptake of dopamine (Rattus norvegicus, UniProt P23977)", "T1 construct": "dopamine in rat brain preparations; from tissue; host or cells: rat brain preparations", "T1 sequence (P23977 whole entry)": "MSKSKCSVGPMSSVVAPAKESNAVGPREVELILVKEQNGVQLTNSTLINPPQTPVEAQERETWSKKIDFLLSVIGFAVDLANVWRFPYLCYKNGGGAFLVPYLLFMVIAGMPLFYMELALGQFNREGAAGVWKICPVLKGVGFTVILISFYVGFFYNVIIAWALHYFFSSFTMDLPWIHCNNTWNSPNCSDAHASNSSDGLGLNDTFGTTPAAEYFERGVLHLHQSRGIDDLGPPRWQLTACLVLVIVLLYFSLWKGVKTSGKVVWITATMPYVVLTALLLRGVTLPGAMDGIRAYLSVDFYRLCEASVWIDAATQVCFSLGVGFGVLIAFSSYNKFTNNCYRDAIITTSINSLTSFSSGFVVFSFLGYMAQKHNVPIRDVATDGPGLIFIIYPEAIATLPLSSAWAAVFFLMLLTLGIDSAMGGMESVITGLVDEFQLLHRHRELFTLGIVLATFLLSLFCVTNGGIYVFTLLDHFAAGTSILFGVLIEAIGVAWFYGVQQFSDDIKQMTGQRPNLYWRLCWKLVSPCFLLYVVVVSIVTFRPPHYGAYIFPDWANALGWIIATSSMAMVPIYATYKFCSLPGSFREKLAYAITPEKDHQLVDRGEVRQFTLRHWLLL", "assay": "Dopamine uptake in rat brain preparations", "type": "biochemical", "settings": "printed as 'and/or dopamine'"}, "Bacterial Mutagenicity": {"test_system": "Bacterial Mutagenicity", "assay": "In Vitro Bacterial Mutagenicity: Modified Ames Test", "type": "cell-based"}, "[6]": {"target": "T2, rat synaptosomal 5-HT Reuptake (Rattus norvegicus, UniProt P31652)", "T2 construct": "rat synaptosomal 5-HT and NE Reuptake; from tissue; host or cells: rat synaptosomes (rat brain preparations)", "T2 sequence (P31652 whole entry)": "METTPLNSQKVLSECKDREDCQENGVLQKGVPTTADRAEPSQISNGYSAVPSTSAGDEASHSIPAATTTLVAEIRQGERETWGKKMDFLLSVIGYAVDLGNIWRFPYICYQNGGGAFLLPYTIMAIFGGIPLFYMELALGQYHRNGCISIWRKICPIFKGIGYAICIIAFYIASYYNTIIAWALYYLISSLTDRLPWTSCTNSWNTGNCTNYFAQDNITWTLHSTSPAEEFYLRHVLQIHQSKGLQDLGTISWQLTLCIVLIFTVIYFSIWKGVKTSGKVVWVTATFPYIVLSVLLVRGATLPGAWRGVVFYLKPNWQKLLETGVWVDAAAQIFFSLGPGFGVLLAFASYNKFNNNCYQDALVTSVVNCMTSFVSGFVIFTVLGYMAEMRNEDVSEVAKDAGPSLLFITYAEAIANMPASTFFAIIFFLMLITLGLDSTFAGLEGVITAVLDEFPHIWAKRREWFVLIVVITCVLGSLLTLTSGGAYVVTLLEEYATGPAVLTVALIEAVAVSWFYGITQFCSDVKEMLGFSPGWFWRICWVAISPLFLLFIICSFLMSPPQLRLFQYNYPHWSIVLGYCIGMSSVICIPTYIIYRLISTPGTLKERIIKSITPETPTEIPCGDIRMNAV", "assay": "Serotonin reuptake assay (rat synaptosomal 5-HT uptake)", "type": "biochemical"}, "[7]": {"assay": "Fourteen-day Oral Dose Range Finding Study in Rats", "type": "in vivo, rat"}, "Mouse Tail-Flick": {"assay": "Mouse Tail-Flick", "type": "in vivo", "parameters": "key to activity in mouse Tail flick model: *: Inactive; Φ: Weakly active"}, "Formalin model": {"assay": "Formalin model", "type": "in vivo", "settings": "rat", "description": "Formalin induces inflammatory stimulation of peripheral nerves that results in sensitization of CNS nociceptive transmission pathways. There are two phases of formalin-induced nociception: phase I—an acute nociceptive component; and phase II—a chronic nociceptive component characterized by hyperalgesia.\nOn the morning of formalin testing, a small metal band (0.5 g) was loosely placed around the right hind paw. The rat was placed in a cylindrical Plexiglas chamber for adaptation for a minimum of 30 minutes. Compound A, venlafaxine or a saline control was administered into the dorsal surface of the right hindpaw of the rat. The animal was then placed into the chamber of the automated formalin apparatus where movement of the formalin-injected paw was monitored and the number of paw flinches tallied by minute over the next sixty minutes. Upon completion of the test the animal was removed and euthanized."}, "[8]": {"target": "T3, delta receptor sites in the brain (Homo sapiens, UniProt P41143)", "T3 construct": "mu, kappa, delta or sigma receptor sites in the brain; from tissue", "T3 sequence (P41143 whole entry)": "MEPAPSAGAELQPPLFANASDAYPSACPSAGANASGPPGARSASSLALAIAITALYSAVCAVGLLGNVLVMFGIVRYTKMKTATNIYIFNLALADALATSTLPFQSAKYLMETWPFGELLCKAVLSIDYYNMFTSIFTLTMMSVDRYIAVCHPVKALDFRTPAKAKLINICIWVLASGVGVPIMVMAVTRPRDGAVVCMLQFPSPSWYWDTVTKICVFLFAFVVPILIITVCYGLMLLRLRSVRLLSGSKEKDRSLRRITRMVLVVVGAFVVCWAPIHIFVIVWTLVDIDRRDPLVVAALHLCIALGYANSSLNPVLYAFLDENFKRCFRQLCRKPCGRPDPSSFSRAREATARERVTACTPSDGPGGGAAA", "assay": "Activity at delta receptor sites in the brain", "type": "binding"}, "Monkey tail dip": {"assay": "Monkey tail dip", "type": "in vivo", "settings": "unmarked entry of animal model table"}, "Rat PQW": {"assay": "Rat PQW", "type": "in vivo", "description": "The anti-phenylquinone writhing (PQW) test modified from the methods of Siegmund et al. (Proc. Soc. Exp. Biol. Med. 95: 729-731, 1957) and Blumberg et al. (Proc. Exp. Biol. Med. 118: 763-767, 1965) was used to assess the relief from the simulated symptoms of neuropathic pain in mice. Male CF1 mice (Charles River Breeding Laboratories, Wilmington, Mass.), fasted for 16-22 hours and weighing 18-23 g, were injected with randomized and coded doses of test compounds, then challenged with 1.25 mg/kg i.p. phenyl-p-benzoquinone (phenylquinone) 5 minutes prior to the specified observation time. The phenylquinone solution (0.1 mg/ml in 5% aqueous ethanol) was prepared daily and stored in foil-wrapped amber bottles to limit degradation. Mice were observed 10 minutes for the presence or absence of the characteristic abdominal constriction and stretching response beginning 30 minutes after injection of the test compound. Activity was calculated as the percentage of mice failing to respond to the phenylquinone challenge dose. […] Median effective doses (ED50's) and 95% confidence limits were determined numerically by the methods of Thompson (Bacteriological Rev. 11: 115-145, 1947), and Litchfield and Wilcoxon (J. Pharmacol. Exp. Ther. 96: 99-113, 1949)."}, "[9]": {"settings": "all administered doses, versus saline control"}}}
{"smiles": "CN1CCC(c2ccsc2)(C(C)(C)O)CC1", "note": "[Compound A, 4-(3-thienyl)-α,α,1-trimethyl-4-piperidinemethanol]", "values": [{"measurement": "LD", "setting": "Safety pharmacology, rat; po", "result": "LD = 400 mg/kg-po"}, {"measurement": "anorexia, multiple of effective dose (mg/kg)", "setting": "Safety pharmacology, rat; po", "result": "10,100,300 mg/kg"}, {"measurement": "physical dep", "setting": "Safety pharmacology, rat; po", "result": "non-opioid"}, {"measurement": "respiratory acidosis, exophthalmia, multiple of effective dose", "setting": "Safety pharmacology, rat; po", "result": "1-50 X"}, {"measurement": "LD", "setting": "Safety pharmacology, rat; sc", "result": "LD = 270 mg/kg-sc"}, {"measurement": "activity at sigma receptor sites", "setting": "[1]", "result": "does not show significant activity"}, {"measurement": "anti-inflammatory effects in vivo", "setting": "[2]", "result": "does not inhibit prostaglandin synthesase activity or show anti-inflammatory effects in vivo"}, {"measurement": "NOEL (mydriasis)", "setting": "[3]", "result": "NOEL < 2.5 mg/kg"}, {"measurement": "MTD at 5 day", "setting": "[3]; dog, in vivo, read-out: MTD (decreased BW)", "result": "< 20", "unit": "mg/kg"}, {"measurement": "inhibition of prostaglandin synthesase activity", "setting": "prostaglandin synthesase", "result": "does not inhibit"}, {"measurement": "ED50", "setting": "Rat Randall-Selitto; Rattus norvegicus", "result": 32, "unit": "mg/kg"}, {"measurement": "activity in rat Randell-Selitto model", "setting": "Rat Randall-Selitto; rat", "result": "Randell-Selitto^Φ"}, {"measurement": "activity in rat Tooth pulp model", "setting": "Rat tooth pulp", "result": "showed activity"}, {"measurement": "anticholinergic side effects, sedation or other signs of motor impairment", "setting": "[4]", "result": "not accompanied by anticholinergic side effects, sedation or other signs of motor impairment"}, {"measurement": "effect upon arousal or motor function", "setting": "[5]; at doses effective in formalin and Chung models", "result": "no effect upon arousal or motor function"}, {"measurement": "effect upon tactile allodynia arising from nerve injury", "setting": "[5]; rat", "result": "reliable dose dependent effect"}, {"measurement": "effects on tactile allodynia", "setting": "[5]; rat, two hours post injection, doses 200 mg/kg and 100 mg/kg", "result": "statistically significant effects"}, {"measurement": "uptake of dopamine", "setting": "uptake of dopamine", "result": "inhibits uptake"}, {"measurement": "In Vitro Bacterial Mutagenicity: Modified Ames Test", "setting": "Bacterial Mutagenicity", "result": "Not mutagenic"}, {"measurement": "IC50", "setting": "[6]", "result": 120, "unit": "nM"}, {"measurement": "uptake of serotonin", "setting": "[6]; rat brain preparations", "result": "inhibits uptake"}, {"measurement": "NOEL (exophthalamos)", "setting": "[7]", "result": "NOEL < 30 mg/kg"}, {"measurement": "NOAEL at 14 day", "setting": "[7]; rat, in vivo", "result": 100, "unit": "mg/kg"}, {"measurement": "ED50", "setting": "Mouse Tail-Flick; Mus musculus, read-out: Mouse Tail-Flick ED50", "result": 117, "unit": "mg/kg"}, {"measurement": "activity in mouse Tail flick model", "setting": "Mouse Tail-Flick; mouse", "result": "Tail flick^Φ"}, {"measurement": "effect upon hyperalgesia induced by injection of formalin into the paw", "setting": "Formalin model", "result": "reliable dose dependent effect"}, {"measurement": "formalin test, paw flinches, phase I", "setting": "Formalin model; all administered doses (200/100/50 mg per kg), versus saline control", "result": "statistically significant effects"}, {"measurement": "formalin test, paw flinches, phase II", "setting": "Formalin model; [9]", "result": "statistically significant effects"}, {"measurement": "formalin test, paw flinches, phase IIA", "setting": "Formalin model; [9]", "result": "statistically significant effects"}, {"measurement": "formalin test, paw flinches, Phase IIB", "setting": "Formalin model; versus saline control", "result": "No statistical significance"}, {"measurement": "activity at delta receptor sites", "setting": "[8]", "result": "does not show significant activity"}, {"measurement": "activity in monkey Tail dip model", "setting": "Monkey tail dip", "result": "showed activity"}, {"measurement": "ED50", "setting": "Rat PQW; Rattus norvegicus", "result": 7.9, "unit": "mg/kg"}, {"measurement": "activity in rat PQW model", "setting": "Rat PQW; rat, unmarked entry of animal model table", "result": "showed activity"}]}
